Data: patent US8999296B2, “Method of detecting bladder cancer” (Kochi University, priority 2008, dated 2015)

Experiments:
bladder cancer [1] = assay: Intraoperative photodynamic diagnosis of bladder cancer with ALA-HCl (video camera system and VLD-M1 fluorescence intensity), Example 1; type: in vivo, human; conditions: for Fluorescence intensity (relative intensity) by VLD-M1: irradiation at 405 nm, PpIX fluorescence at 635 nm, one subject
Experimental: Intraoperative diagnosis using 5-aminolevulinic acid hydrochloride (ALA-HCl) was carried out for two subjects who are in the almost same progression stage of bladder cancer. The subjects were administered ALA-HCl respectively by bladder instillation and by oral intake. Bladder instillation was conducted on the day of operation by dissolving 1.5 g of ALA-HCl in 50 mL of a 8.4% sodium bicarbonate (sodium hydrogen carbonate: NaHCO3) to adjust pH (median pH of 8.0 (pH 7.8-8.2)), filtrating the dissolved ALA-HCl solution with a 0.22 μm filter, and then injecting this dissolved solution (50 mL) into the bladder of a subject. Retention time in the bladder was set for 120-150 min ([…]) and ALA was eliminated just prior to the operation. On the other hand, oral intake was carried out by dissolving ALA (maximum of 1 g) in 50 mL of a 5% dextrose solution to 20 mg/kg, and the ALA dissolved solution (50 mL) was orally administered to the other subject in the morning (4 hours before commencement of the operation) without giving breakfast. Diagnosis was conducted based on the diagnostic imaging and fluorescent intensity with the use of a video camera system: Endovision TELECAM SL/IPM-PPDSystem (KARL STORZ) and VLD-M1 (M&M). The video camera system was inserted via the urethra and the red light part was observed after irradiating a blue fluorescence at 380-440 nm. Further, VLD-M1 was inserted and fluorescence intensity (relative intensity) at the red light part was observed after irradiating a blue fluorescence at 405 nm.
In addition, at 635 nm which is the […] for protoporphyrin IX (PpIX), it was confirmed as shown in Table 1 that the fluorescence intensity was higher in the case of oral intake than in the case of bladder instillation.

bladder cancer [2] = assay: Fluorescence diagnosis in bladder cancer patients grouped by disease stage (pTis, pTa, pT1, pT2, pT3), Example 2; type: in vivo, human; conditions: 50 bladder cancer patients, stages pTis, dosing as in Example 1
Experimental: ALA was injected into the bladder or administered orally similarly to Example 1 to bladder cancer patients who had been grouped according to the disease stages based on the intramural invasion depth of the primary tumor: 6 cases of pTis (intraepithelial cancer), 27 cases of pTa (without invasion), 9 cases of pT1 (with invasion to submucosal connective tissue), 6 cases of pT2 (with muscle invasion), 2 cases of pT3 (with invasion to pericystic adipose tissue) (50 cases for total number of patients). […] This confirmed that oral administration is effective in a diagnosis method for bladder cancer at every disease stage.

Cl.NCC(=O)CCC(=O)O [ALA, 5-aminolevulinic acid hydrochloride]
Fluorescence intensity (relative intensity) by VLD-M1 (bladder cancer [1]; bladder instillation of ALA (1.5 g ALA-HCl in 50 mL 8.4% NaHCO3)): 20153 | Fluorescence intensity (relative intensity) by VLD-M1 (bladder cancer [1]; oral intake of ALA (20 mg/kg, 4 hours before operation)): 48623 | Identification of the site of bladder cancer by diagnostic imaging (FIGS. 1 and 2) (bladder cancer [1]; oral intake versus bladder instillation, irradiation at 380-440 nm, red light part observed): more remarkably identified in the case of oral intake than in the case of bladder instillation | Fluorescence, oral administration versus injection into the bladder (FIGS. 3-6) (bladder cancer [2]): fluorescence was more intensive when ALA was orally administered than when injected into the bladder
